The text below walks through data of patent publication US10201588B2, “Materials and methods of treating dyslipidemia” (UNIVERSITY OF MIAMI, priority 2017, dated 2019).

Marks after values point to notes of the source that are not given here.

Assay [1] concerns T1D rats. Nature of the assay: Kidney damage in T1D rats: proteinuria (albumin/creatinine ratio) and α-sma expression in kidney cortex. The format is in vivo, rat. Particulars: MIA-602 treatment vs vehicle-treated T1D. The procedure: (§1) T1 Diabetes Animal Model. Wistar rats (male, 200-250 g, Envigo RMS, Inc.) were rendered diabetic with a single dose of streptozotocin (STZ, 50 mg/kg body weight, i.p.). Once rats became hyperglycemic (>350 mg/dl plasma glucose, usually 3-4 days post STZ injection), they were divided into two groups, with and without treatment with the GHRH antagonist MIA-602 ([…], s.c.) administered three times a week for 14 weeks after establishment of diabetes. Untreated animals received vehicle alone with the same regimen. Upon completion of the 14 weeks period, animals were placed in metabolic cages for 3 days for adaptation, allowing them free movement, water and food intake. […] On the third day in the metabolic cages, food and water intake was monitored for a period of 24 hours. […]
Determination of metabolites. ApoB-48 lipoprotein was measured in plasma samples from rats and in culture medium supernatant from IEC by the use of a commercial ELISA kit (MyBioSource). The VLDL/LDL Cholesterol Assay kit (Abcam), the Total Cholesterol Assay kit (Wako) and the PicoProbe Triglyceride Quantification Assay Kit (Abcam) were used for analysis of VLDL/LDL fractions, total cholesterol and triglycerides in plasma samples. Albumin and creatinine levels in urine were analyzed by the use of Nephrat II and Creatinine Companion (Exocell) assay kits, respectively. […]

In assay [2] the test system is thoracic aortas of T1D rats. Nature of the assay: Vasodilation of thoracic aortic rings from T1D rats (acetylcholine, sodium nitroprusside). It counts as in vivo, rat. The note with it: three groups of animals compared, FIG. 5E. The protocol: FIG. 5A is a graph showing the measurement of proteinuria in urine from control, T1D and MIA-602/T1D rats, expressed as the albumin/creatinine ratio (n=5 per group). FIG. 5B: Upper panel: representative immunoblot of α-smooth muscle actin (α-sma) expression (a marker of fibroblast activation and renal fibrosis) in homogenates of kidney cortex.
Therefore, MCP-1 levels in the serum were analyzed. […] Both dyslipidemia and increased MCP-1 plasma levels represent risk factors for vascular endothelial dysfunction. […] Responses to the endothelial-independent vasodilator sodium nitroprusside (SNP) were similar amongst the three groups of animals (FIG. 5E).

In another assay the test system is GLP-1 receptor. Nature of the assay: Western blot of GLP-1 receptor expression in T1D rats. The format is in vivo, rat. Particulars: MIA-602 treatment vs augmented expression in T1D, FIG. 3A. The protocol:
(§2) T1 Diabetes Animal Model. Wistar rats (male, 200-250 g, Envigo RMS, Inc.) were rendered diabetic with a single dose of streptozotocin (STZ, 50 mg/kg body weight, i.p.). Once rats became hyperglycemic (>350 mg/dl plasma glucose, usually 3-4 days post STZ injection), they were divided into two groups, with and without treatment with the GHRH antagonist MIA-602 ([…], s.c.) administered three times a week for 14 weeks after establishment of diabetes. Untreated animals received vehicle alone with the same regimen. Upon completion of the 14 weeks period, animals were placed in metabolic cages for 3 days for adaptation, allowing them free movement, water and food intake. During the entire experiment, rats were fed regular rat chow (Teklad Diet, Madison, Wis.) and received water ad libitum. On the third day in the metabolic cages, food and water intake was monitored for a period of 24 hours. 24-hour urine specimens were also collected, centrifuged at 400×g for 5 minutes for particulate removal, aliquoted and stored at −80° C. […]
(§3) The entire small intestine was removed and its length was measured from the pylorus to the ileocecal junction. […] Proteins were detected with the following antibodies: GHRH receptor (Abcam), GLP-1 receptor (Santa Cruz Inc), α-sma (Sigma-Aldrich), or β-actin (Sigma-Aldrich). Data obtained from Western blots were processed by ImageJ quantification software.
Background: Immunoblotting shows a protein as a band on a membrane.

Assay [3] has as its system T1D rats. Nature of the assay: Plasma metabolites, lipids, glucose regulatory hormones and chemokines in T1D rats. It counts as in vivo, rat. The protocol: T1 Diabetes Animal Model. Wistar rats (male, 200-250 g, Envigo RMS, Inc.) were rendered diabetic with a single dose of streptozotocin (STZ, 50 mg/kg body weight, i.p.). Once rats became hyperglycemic (>350 mg/dl plasma glucose, usually 3-4 days post STZ injection), they were divided into two groups, with and without treatment with the GHRH antagonist MIA-602 ([…], s.c.) administered three times a week for 14 weeks after establishment of diabetes. Untreated animals received vehicle alone with the same regimen. Upon completion of the 14 weeks period, animals were placed in metabolic cages for 3 days for adaptation, allowing them free movement, water and food intake. During the entire experiment, rats were fed regular rat chow (Teklad Diet, Madison, Wis.) and received water ad libitum. On the third day in the metabolic cages, food and water intake was monitored for a period of 24 hours. 24-hour urine specimens were also collected, centrifuged at 400×g for 5 minutes for particulate removal, aliquoted and stored at −80° C. Animals were then euthanized in the morning around 10 am in a fed state, under deep anesthesia with isoflurane, by exsanguination, followed by removal of vital organs. Plasma was separated from heparinized blood samples, aliquoted and saved at −80° C. for further analysis. Rats were handled according to high ethical and scientific standards for laboratory animals, and our protocol was reviewed and approved by the Institutional Animal Care and Use Committee at the Medical College of Georgia at Augusta University.
(§4) Determination of metabolites. ApoB-48 lipoprotein was measured in plasma samples from rats and in culture medium supernatant from IEC by the use of a commercial ELISA kit (MyBioSource). The VLDL/LDL Cholesterol Assay kit (Abcam), the Total Cholesterol Assay kit (Wako) and the PicoProbe Triglyceride Quantification Assay Kit (Abcam) were used for analysis of VLDL/LDL fractions, total cholesterol and triglycerides in plasma samples. Albumin and creatinine levels in urine were analyzed by the use of Nephrat II and Creatinine Companion (Exocell) assay kits, respectively. Chemokines and glucose regulatory hormones (MCP-1, insulin, amylin, GIP and glucagon) were analyzed using the MILLIPLEX MAP Rat Metabolic Hormone Magnetic Bead Panel—Metabolism Multiplex Assay (RMHMAG-84K, EMD Millipore). Levels of growth hormone (GH) were assay with Rat Growth Hormone ELISA kit (EMD Millipore). Glucose levels were measured in blood by AlphaTRAK Blood Glucose Monitoring System.

The test system of the next assay is GHRH receptor. Nature of the assay: Western blot of GHRH receptor expression in jejunum-ileum of T1D rats. The format is in vivo, rat. Particulars: diabetic rats, MIA-602 25 μg/kg s.c. three times a week for fourteen weeks, vs vehicle diabetic. The protocol:
as §1, §3
T1D was induced in Wistar rats (male, 320-350 g) with intraperitoneal injection of a single dose of STZ (50 mg/kg body weight). […] The entire small intestine was removed from rats, and its length was measured from the pylorus to the ileocecal junction. […]

In assay [4] the test system is lung microvascular endothelial cells. The note with it: reference (24); cited from earlier work.
Assay [5] has as its system Rat small intestinal epithelial cells (IEC-6). Nature of the assay: ApoB-48 lipoprotein secretion by cultured intestinal epithelial cells challenged with oleic acid. The format is cell-based. The procedure:
Cell culture. Rat small intestinal epithelial cells (IEC-6, ATCC® CRL-1592™) were grown in 6-well plates in DMEM medium supplemented with 10% fetal bovine serum (heat inactivated FBS, Gibco/Invitrogen), 1 mM sodium pyruvate, 2 mM L-alanyl-L-glutamine (GLUTAMAX I), 5 μg/ml insulin (Sigma-Aldrich), 100 U/ml penicillin and 100 μg/ml streptomycin at 37° C. in a 5% CO2 atmosphere. For all experiments, cells up to passage 6 were used for all experiments.
Peptide Analogs Preparation. GHRH agonist JI-34, and GHRH antagonist MIA-602 were synthesized in the laboratory of A.V.S. (23, 24) and dissolved initially in DMSO before dilution with incubation medium. The final concentration of DMSO in the medium never exceeded 0.1% v/v.
Assessment of ApoB-48 lipoprotein secretion by cultured intestinal epithelial cells. Upon confluence, cells were washed twice with serum-free DMEM medium, upon which fresh serum-free medium, supplemented with or without 5 μg/ml insulin was added. After 2 hrs of equilibration, cells were pre-treated for 1 hour with the GHRH receptor agonist JI-34 (1 μM, dissolved in DMSO), while control cells received vehicle alone, followed by addition of the GLP-1 receptor agonist (Exendin-4, 10 nM, Sigma-Aldrich). After 3 hrs, cells were treated with 0.5 mM oleic acid (OA) complexed to BSA (Sigma-Aldrich) for 3 hrs, to allow for lipid loading into ApoB-48 lipoproteins. Additional cells were pre-incubated or not for 1 h with the GLP-1 receptor antagonist Exendin 9-39 (100 nM, Sigma-Aldrich), or the GHRH antagonist MIA-602 (1 μM, dissolved in DMSO). Upon completion of treatment, medium was collected, centrifuged at 1,000×g for 3 minutes, and saved at −80° C. for further analysis.
as §4

The subject of assay [6] is Dipeptidyl-Peptidase 4 (DPP4). Nature of the assay: Plasma DPP4 activity in T1D rats (ELISA kit). The note with it: non-fasting state, MIA-602 treatment, FIG. 6. The format is in vivo, rat. The protocol: Treatment with MIA-602 blunted this effect. DPP4 activity values were measured in plasma obtained from rats in the non-fasting state, by the use of a commercial ELISA kit (MyBioSource).
as §2, with “C. Animals were then euthanized in the morning around 10 am in a fed state, under deep anesthesia with isoflurane, by exsanguination, followed by removal of vital organs.” for “C.”
On the technique in general: An ELISA detects its analyte on a solid surface through an enzyme-linked reagent.

Consider “Phac-Ada-Ty^1-D-Arg^2-Asp^3-Ala^4-Ile^5-Phe(F)5^6-Thr^7-Ala^8-Har^9-Tyr(me)^10-His^11-Orn^12-Val^13-Leu^14-Abu^15-Glu^16-Leu^17-Ser^18-Ala^19-His^20-Orn^21-Leu^22-Leu^23-Glu^24-Asp^25-Ile^26-Nle^27-D-Arg^28-Har^29-NH2 [MIA-602]”, for which the “Proteinuria (albumin/creatinine ratio)” value in the assay on T1D rats [1] (FIG. 5A) is on record as “reduced”. Moreover, the “α-sma expression in kidney cortex” value in the assay with T1D rats [1] (Western blot, FIG. 5B) is recorded as “reduced”. The “Responses to the endothelial-independent vasodilator sodium nitroprusside (SNP)” value in assay [2] is listed as “similar”. In addition, in the assay on GLP-1 receptor, the “GLP-1 receptor expression in distal small intestine and liver” value is reported as “unaffected”. In the assay with T1D rats [3] (T1D rats treated with MIA-602, FIG. 2D), the “Plasma levels of apolipoprotein B-48 (ApoB-48)” value is given as “blunted”. Further, the “Plasma levels of GIP” value in the assay on T1D rats [3] (T1D rats treated with MIA-602, not significant vs vehicle-treated diabetic (85.7±37.5)) amounted to 46.7 ± 9.6 pg/mL. Further, the “Lipemic plasma (visual)” value with T1D rats [3] (T1D rats treated with MIA-602 vs vehicle, FIG. 2A) is “significant reduction”. The “Total cholesterol levels in plasma” value in the assay with T1D rats [3] (T1D rats treated with MIA-602 vs vehicle-treated STZ diabetic animals, FIG. 2B) is given as “lower”. In addition, the VLDL/LDL-cholesterol in plasma result in the assay with T1D rats [3] (T1D rats treated with MIA-602 vs vehicle-treated STZ diabetic animals, FIG. 2C) is listed as “lower”. Besides, in the assay on T1D rats [3] (T1D rats, MIA-602 25 μg/kg s.c. three times a week for 14 weeks, p < 0.02 vs Diabetes), the Plasma glucagon was 55.9 ± 34.3^c pg/ml. In addition, in the assay on T1D rats [3] (T1D rats, MIA-602 25 μg/kg s.c. three times a week for 14 weeks, p < 0.05 vs Diabetes), the “Plasma GLP-1” value is listed as 48.7 ± 25.2^e pg/ml. Moreover, the MCP-1 serum levels result with T1D rats [3] (T1D rats, MIA-602 treatment, FIG. 5C) is given as “reduced”. Also, the Plasma triglyceride levels in the assay on T1D rats [3] (T1D rats, MIA-602 treatment, p<0.01 vs. STZ (89.3±4.2), n=6 per group) was 82.3 ± 2.8 mg/dL. Moreover, in the assay with T1D rats [3] (T1D rats, non-fasting, MIA-602 25 μg/kg s.c. three times a week for 14 weeks, no insulin), the Plasma glucose is 603 ± 137.4^b mg/dl. For the same substance, the “Blunting of GHRH receptor expression in jejunum-ileum (Western blot densitometry)” value in the assay with GHRH receptor is reported as “approximately 5 fold”. Moreover, the Barrier function entry in assay [4] is reported as “slightly decreased”. The “ApoB-48 released into medium” value is 3.43 ± 0.15 µg/mL in assay [5] (oleic acid (0.5 mM)-treated IEC, no insulin, agent alone at 1 μM, no GLP-1 agonist, oleic acid alone 6.67±0.26); 4.47 ± 0.46 µg/mL in assay [5] (oleic acid-treated IEC, MIA-602 (1 μM) in the presence of JI-34 and exendin-4). Further, the “Plasma Dipeptidyl-Peptidase 4 (DPP4) activity” value in assay [6] is “reduced”.
For exendin 9-39, the “ApoB-48 released into medium” value was found to be 7.56 ± 0.53 µg/mL in assay [5] (oleic acid-treated IEC, exendin 9-39 (100 nM) together with MIA-602 (1 μM), MIA-602 alone 3.43±0.15) and 8.78 ± 0.34 µg/mL in assay [5] (oleic acid-treated IEC, pretreatment 100 nM, then exendin-4 (10 nM), exendin-4 alone 4.44±0.36).
Consider “exendin-4: GLP-1 receptor agonist (Sigma-Aldrich)”, for which the “ApoB-48 released into medium” value in assay [5] (oleic acid (0.5 mM)-treated IEC, no insulin, agent alone at 10 nM, oleic acid alone 6.67±0.26, medium alone 3.48±0.98) was 4.44 ± 0.36 µg/mL.
